Experimental data published in US20260083742A1, “HOMOLOGOUS RECOMBINATION REPAIR DEFICIENCY (HRD) AS A PREDICTIVE BIOMARKER FOR TREATING CANCER WITH WEE1 INHIBITORS” (Zeno Management, Inc., priority 2023, published 2026).
Read-outs that look alike come from different tables or passages of the source.

Legend:
[1] = tested on: SUM149PT TNBC xenograft (BRCA1 splice isoform Δ11q); test: SUM149PT TNBC xenograft tumor growth inhibition; type: in vivo, mice
Procedure: SUM149PT is a TNBC xenograft model harboring a BRCA1 splice isoform (Δ11q) that produces a truncated, partially functional protein which thereby promotes PARP inhibitor resistance. Azenosertib monotherapy and its combination with olaparib or AZD5305 was evaluated in the SUM149PT model in vivo in mice (FIGS. 10A-10B), and Table 12 summarizes the groups and treatments. Single agent treatment with olaparib at 100 mg/kg QD (FIG. 10A) or with the PARP1 selective inhibitor, AZD5305, at 0.1 or 1 mg/kg QD (FIG. 10B) confirmed SUM149PT resistance to PARP inhibitors.

[2] = tested on: 22RV1 (prostate cancer cell line) subcutaneous xenografts; test: 22RV1 subcutaneous xenograft tumor growth inhibition; type: in vivo, CB17 SCID mice
Procedure: The prostate cancer cell line 22RV1 harbors a BRCA2 pathogenic mutation (HRD+). Briefly, 72 tumor-bearing mice were randomized and assigned into nine groups using a randomized block design based on their tumor volumes with eight mice per group. Each mouse was inoculated subcutaneously at the right flank with 22RV1 tumor cells in 0.2 mL mixture of Matrigel (5×10^6 cells/mouse). Treatments were started when the tumor size reached 199.94 mm^3 for tumor efficacy studies (Day 14 post inoculation). [table] Tumor size was measured twice weekly in two dimensions using caliper and expressed in mm3 using the formula: where a and b were long and short diameters of the tumor. The tumor size was used for calculations of T/C %. The T/C(%) was calculated according to the following formula: Two-way ANOVA followed by Bonferroni post-test was performed to compare tumor volumes among vehicle and other groups.

[3] = tested on: MDA-MB-436 Nir^R (BRCA reversion) TNBC cell line; test: In vitro activity (IC50) in niraparib-resistant MDA-MB-436; type: cell-based
Procedure: (§1) Cells with BRCA reversion mutations may be considered HRD+due to genome instability (such as TAI, LST, LOH). BRCA reversion mutation is an established mechanism of resistance to both platinum-based chemotherapeutic drugs and PARP inhibitors. In vivo exploration of WEE1 inhibitors (azenosertib, adavosertib) and PARP inhibitors (niraparib, olaparib) was evaluated.
(§2) MDA-MB-436 PARP inhibitor-resistant lines were generated by long-term in vitro treatment with a PARP inhibitor that is olaparib (Ola^R) or niraparib (Nir^R).

[4] = tested on: parental MDA-MB-436 TNBC cell line; test: In vitro activity (IC50) in parental MDA-MB-436; type: cell-based
Procedure: as §1, §2

[5] = tested on: MDA-MB-436 Ola^R (BRCA reversion) TNBC cell line; test: In vitro activity (IC50) in olaparib-resistant MDA-MB-436; type: cell-based
Procedure: as §1, §2

[6] = tested on: HCC1937 PARP inhibitor-resistant TNBC xenograft; test: HCC1937 TNBC xenograft tumor growth inhibition; type: in vivo, mice; conditions: olaparib 100 mg/kg QD
Procedure: Anti-tumor activity of azenosertib monotherapy or in combination with olaparib was evaluated in the HCC1937 model in vivo in mice (FIG. 9), and Table 11 summarizes the groups and treatments. […] Treatment with monotherapy olaparib at 100 mg/kg QD confirmed HCC1937 resistance to the PARP inhibitor.

[7] = Body weight loss and clinical observations in ovarian PDX study; type: in vivo
Procedure: Relative Body Weight (RBW), individual body weight and mean body weight loss percent were calculated for each measurement by dividing the body weight by the body weight at the start of treatment as described in Example 3.

[8] = Body weight loss and clinical observations in TNBC PDX study; conditions: azenosertib 60 mg/kg and/or niraparib 35 mg/kg p.o., (5 days on, 2 days off) × 4
Procedure: Animals were treated with 60 mg/kg azenosertib or 35 mg/kg niraparib alone or in combination on an intermittent dosing regimen of once a day for 5 days followed by 2 days off (qd x5, 2 days off) for 4 cycles (28 days).
Relative body weight (RBW) is calculated for each measurement by dividing the body weight by the body weight at the start of treatment. Individual body weight loss percent is given by the formula: […]
where BWx is the BW at any day during the treatment and BW0 is the BW on the day of inclusion.
Mean body weight loss percent is given by the formula: […]
where BWx is the mean BW at any day during the treatment and BW0 is the mean BW on the day of inclusion.
Mean relative body weight (RBW) curves were obtained by plotting the mean RBW against time for each experimental group. Delta relative body weights (relative body weights of treated group compared to relative body weights of control group) were used for statistical analysis.

[9] = olaparib 50 mg/kg p.o. qd × 5 3 cycle
[10] = Homo sapiens, parental MDA-MB-436, read-out: In vitro activity (IC50) Wild Type
[11] = Homo sapiens, MDA-MB-436 Ola^R, read-out: In vitro activity (IC50) Olaparib^R (BRCA reversion)
[12] = azenosertib 60 mg/kg and/or niraparib 35 mg/kg p.o., (5 days on, 2 days off) × 4
[13] = niraparib 30 mg/kg p.o. qd × 5 3 cycle
[14] = parental MDA-MB-436, read-out: In vitro activity (IC50) Wild Type
[15] = MDA-MB-436 Ola^R, read-out: In vitro activity (IC50) Olaparib^R (BRCA reversion)

## CCc1cc2ncc(CN3CCN(c4ccc(C(=O)NC)nc4)CC3)cc2[nH]c1=O [AZD5305, saruparib]
[1]; AZD5305 0.1 or 1 mg/kg QD
  anti-tumor activity of single agent: resistance

## O=C(c1cc(Cc2n[nH]c(=O)c3ccccc23)ccc1F)N1CCN(C(=O)C2CC2)CC1 [Olaparib, olaparib]
[2]; [9]
  % TGI Day 5: 33.81%
  % TGI Day 8: 26.80%
  % TGI Day 12: 18.2%
  % TGI Day 15: 5.03%
  % TGI Day 19: 14.79%
[1]; olaparib 100 mg/kg QD
  anti-tumor activity of single agent: resistance
[3]; Homo sapiens
  IC50: > 10 µM
[4]; [10]
  IC50: 0.095 µM
[5]; [11]
  IC50: > 10 µM
[6]
  anti-tumor activity of monotherapy: resistance

## NC(=O)c1cccc2cn(-c3ccc([C@@H]4CCCNC4)cc3)nc12 [Niraparib, niraparib]
[7]; [12]
  Max. individual BWL: 7.0%
  Max. mean BWL: 1.5%
[7]; azenosertib at 60 mg/kg, niraparib at 35 mg/kg, single agents or in combination
  tolerability (body weight data and clinical observations): well tolerated
[2]; [13]
  % TGI Day 5: 31.64%
  % TGI Day 8: 18.17%
  % TGI Day 12: 21.99%
  % TGI Day 15: 4.28%
  % TGI Day 19: −1.28%
[3]; Homo sapiens
  IC50: 8.65 µM
[4]; [10]
  IC50: 0.103 µM
[8]
  Max. individual BWL: 6.2%
  Max. mean BWL: 3.4%
[5]; [11]
  IC50: 7.73 µM

## C[C@@H]1COCCN1c1cc(C2([S@](C)(=N)=O)CC2)nc(-c2cc[nH]c3nccc2-3)n1 [AZD6738]
[3]
  IC50: 1.77 µM
[4]; [14]
  IC50: 3.67 µM
[5]; [15]
  IC50: 1.84 µM

## Cc1cc2ncnn2cc1Nc1ncc2c(n1)n(C1CCOCC1)c(=O)n2C [AZD7648]
[3]
  IC50: > 10 µM
[4]; [14]
  IC50: > 10 µM
[5]; [15]
  IC50: > 10 µM

## Cn1cc(-c2cnn3c(N)c(Br)c([C@@H]4CCCNC4)nc23)cn1 [MK8776]
[4]; Homo sapiens, MDA-MB-436, read-out: In vitro activity (IC50) Wild Type
  IC50: > 10 µM
[5]; Homo sapiens, MDA-MB-436, read-out: In vitro activity (IC50) Olaparib^R (BRCA reversion)
  IC50: 5.97 µM

## CN(C)CCCOc1ccc(-c2ccc3ncc4c(c3c2)n(C2CCOCC2)c(=O)n4C)cn1 [AZD0156]
[3]
  IC50: 2.08 µM
[4]; [14]
  IC50: 4.98 µM
[5]; [15]
  IC50: 1.99 µM
